According to patent publication US8829011B2 (Janssen Pharmaceutica NV, priority 2008, dated 2014):
Counter-ions that a name gives are not always drawn.

Key:
rat 5-HT7a receptor = molecular target: T1, rat 5-HT7a receptor (Rattus norvegicus, UniProt P32305); experiment: Affinity for 5-HT7 receptor binding sites (competition radioligand binding, [3H]5-CT); details: membranes of HEK-293 cells with rat 5-HT7a; 1 nM [3H]5-CT; * = tested as hydrochloride salt
T1 construct: expressed in transfected cells; host or cells: HEK-293
Experimental: Stock drug solutions (10 mM) were prepared in DMSO (the final assay concentration of DMSO not exceeding 0.4%). Drug dilutions were prepared in assay buffer.
Sigmoidal inhibition curves were generated and fitted by nonlinear regression analysis (GraphPad Prism).
1. Affinity for 5-HT7 Receptor Binding Sites
The affinity of the compounds described in this invention for the 5-HT7 receptor binding site was evaluated by single competition radioligand binding assay. The assay was performed on membranes prepared from HEK-293 cells that had been subjected to stable transfection with the rat 5-HT7a receptor (GB: NM022938). Cells were scraped from the culture plates, suspended in Tris-HCl 50 mM pH 7.5 and collected through centrifugation (1000 rpm for 5 min). The cell pellets were homogenized (Polytron, 15 s, setting 5) in 50 mM Tris-HCl (pH 7.5), 5 mM EDTA. Following centrifugation (15,000 rpm for 25 min), membranes (135 μg protein/mL) were resuspended in the same buffer and incubated for 60 min at RT with 1 nM [^3H]5-CT in the presence of increasing concentration of test compounds. Nonspecific binding was defined in the presence of 10 μM 5-HT. Incubation was stopped by rapid filtration using the cell harvester (Packard). Radioactivity was counted in a TopCount-NXT (Packard). Experiments were conducted in triplicate.

[1] = molecular target: T2, human recombinant 5-HT2C receptor (Homo sapiens, UniProt P28335); experiment: Affinity for 5-HT2C receptor binding sites (competitive radioligand binding, [3H]mesulergine); details: membranes of CHO with h5-HT2C, * = tested as hydrochloride salt
T2 construct: expressed in transfected cells; host or cells: CHO
T2 sequence (P28335 33-458): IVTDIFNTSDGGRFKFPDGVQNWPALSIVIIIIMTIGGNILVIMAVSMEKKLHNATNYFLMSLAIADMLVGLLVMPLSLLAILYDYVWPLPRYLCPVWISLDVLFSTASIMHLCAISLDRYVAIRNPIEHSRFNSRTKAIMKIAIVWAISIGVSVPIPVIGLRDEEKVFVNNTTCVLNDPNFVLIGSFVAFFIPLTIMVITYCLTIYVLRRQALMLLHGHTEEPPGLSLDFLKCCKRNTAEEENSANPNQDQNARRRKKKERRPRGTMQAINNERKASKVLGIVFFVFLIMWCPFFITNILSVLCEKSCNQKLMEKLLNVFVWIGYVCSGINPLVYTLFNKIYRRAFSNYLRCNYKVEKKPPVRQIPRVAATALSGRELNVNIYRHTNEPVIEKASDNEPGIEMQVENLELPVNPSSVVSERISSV
Method in brief: (§1)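 Membranes from NIH3T3 cells stably expressing h5-HT2A or CHO cells stably expressing h5-HT2B/h5-HT2C; [3H]ketanserin used for 5-HT2A, [3H]mesulergine for 5-HT2B/2C. Compounds from 10 mM DMSO stocks, final DMSO ≤0.4%. Affinity from sigmoidal inhibition curves fitted by nonlinear regression.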

[2] = molecular target: T3, human recombinant 5-HT2B receptor (Homo sapiens, UniProt P41595); experiment: Affinity for 5-HT2B receptor binding sites (competitive radioligand binding, [3H]mesulergine); details: membranes of CHO with h5-HT2B, * = tested as hydrochloride salt
T3 construct: expressed in transfected cells; host or cells: CHO
Method in brief: as §1

[3] = molecular target: T4, human recombinant 5-HT6 receptor (Homo sapiens, UniProt P50406); experiment: Affinity for 5-HT6 receptor binding sites (competitive radioligand binding, [3H]LSD); details: membranes of HEK-293 with h5-HT6, * = tested as hydrochloride salt
T4 construct: expressed in transfected cells; host or cells: HEK-293
Method in brief: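 Membranes from HEK-293 cells stably expressing human 5-HT6, competition against [3H]LSD; nonspecific binding defined with 1 μM clozapine. DMSO ≤0.4% final. Inhibition curves fitted by nonlinear regression.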

[4] = molecular target: T5, human recombinant 5-HT2A receptor (Homo sapiens, UniProt P28223); experiment: Affinity for 5-HT2A receptor binding sites (competitive radioligand binding, [3H]ketanserin); details: membranes of NIH3T3 with h5-HT2A, * = tested as hydrochloride salt
T5 construct: expressed in transfected cells; host or cells: NIH3T3
Method in brief: as §1

T3 sequence (P41595 whole entry): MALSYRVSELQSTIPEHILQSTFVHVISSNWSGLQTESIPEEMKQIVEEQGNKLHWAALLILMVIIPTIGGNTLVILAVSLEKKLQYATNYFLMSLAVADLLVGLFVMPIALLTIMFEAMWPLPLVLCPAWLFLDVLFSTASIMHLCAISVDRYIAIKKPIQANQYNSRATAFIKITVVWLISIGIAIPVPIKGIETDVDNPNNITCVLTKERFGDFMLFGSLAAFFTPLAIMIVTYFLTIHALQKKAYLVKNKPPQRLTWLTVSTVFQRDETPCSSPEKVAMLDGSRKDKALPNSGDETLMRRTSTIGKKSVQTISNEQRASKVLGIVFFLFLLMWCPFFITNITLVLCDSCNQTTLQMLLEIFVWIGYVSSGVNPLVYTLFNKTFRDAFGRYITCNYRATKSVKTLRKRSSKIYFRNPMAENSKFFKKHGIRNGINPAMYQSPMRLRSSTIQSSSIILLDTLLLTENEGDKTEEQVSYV
T4 sequence (P50406 whole entry): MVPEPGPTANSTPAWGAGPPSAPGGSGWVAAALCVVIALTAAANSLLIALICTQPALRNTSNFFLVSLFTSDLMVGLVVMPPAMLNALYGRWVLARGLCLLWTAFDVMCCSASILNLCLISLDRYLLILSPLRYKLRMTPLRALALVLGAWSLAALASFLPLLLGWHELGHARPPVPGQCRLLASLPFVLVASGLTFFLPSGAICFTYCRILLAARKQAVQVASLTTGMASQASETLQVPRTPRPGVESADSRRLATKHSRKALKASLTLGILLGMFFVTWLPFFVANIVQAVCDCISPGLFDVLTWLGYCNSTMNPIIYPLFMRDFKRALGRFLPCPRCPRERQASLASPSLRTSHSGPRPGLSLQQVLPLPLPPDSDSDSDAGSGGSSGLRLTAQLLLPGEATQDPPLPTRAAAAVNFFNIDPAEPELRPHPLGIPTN
T5 sequence (P28223 whole entry): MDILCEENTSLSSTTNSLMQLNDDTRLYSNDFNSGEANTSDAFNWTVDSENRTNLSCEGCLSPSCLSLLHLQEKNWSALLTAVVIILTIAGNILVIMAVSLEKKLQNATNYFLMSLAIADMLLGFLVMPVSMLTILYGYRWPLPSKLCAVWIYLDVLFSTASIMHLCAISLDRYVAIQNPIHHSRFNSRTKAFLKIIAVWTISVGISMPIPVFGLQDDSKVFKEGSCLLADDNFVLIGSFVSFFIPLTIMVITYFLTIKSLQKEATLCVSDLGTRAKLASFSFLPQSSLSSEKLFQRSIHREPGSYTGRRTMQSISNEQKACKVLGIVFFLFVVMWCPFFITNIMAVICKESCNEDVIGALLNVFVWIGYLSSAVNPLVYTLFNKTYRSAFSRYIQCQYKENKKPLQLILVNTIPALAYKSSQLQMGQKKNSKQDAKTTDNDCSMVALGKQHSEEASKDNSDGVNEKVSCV
T1 sequence (P32305 whole entry): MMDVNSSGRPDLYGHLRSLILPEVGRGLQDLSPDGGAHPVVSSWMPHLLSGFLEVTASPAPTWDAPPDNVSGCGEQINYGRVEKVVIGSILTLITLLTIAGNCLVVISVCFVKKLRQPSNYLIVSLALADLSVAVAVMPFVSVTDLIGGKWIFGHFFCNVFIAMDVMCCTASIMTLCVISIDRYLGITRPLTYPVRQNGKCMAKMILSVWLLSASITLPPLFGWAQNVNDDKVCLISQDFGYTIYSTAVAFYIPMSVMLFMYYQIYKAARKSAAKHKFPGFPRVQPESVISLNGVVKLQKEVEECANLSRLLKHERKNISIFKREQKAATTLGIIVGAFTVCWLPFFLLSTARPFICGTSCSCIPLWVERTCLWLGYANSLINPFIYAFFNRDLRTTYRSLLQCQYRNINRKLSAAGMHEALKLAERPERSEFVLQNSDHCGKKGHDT

Compound | Ki (rat 5-HT7a receptor) | Ki [1] | Ki [2] | Ki [3] | Ki [4]
CCN(CC)c1nc2c(c(-c3ccc(OC)cc3)n1)CCNCC2 [Example 13, Diethyl-[4-(4-methoxy-phenyl)-6,7,8,9-tetrahydro-5H-pyrimido[4,5-d]azepin-2-yl]-amine hydrochloride] | 32 nM | 40 nM | 0.8 nM | 28 nM | 10 nM
CCN(CC)c1nc2c(c(-c3ccc(C#N)cc3)n1)CCNCC2 [Example 14, 4-(2-Diethylamino-6,7,8,9-tetrahydro-5H-pyrimido[4,5-d]azepin-4-yl)-benzonitrile hydrochloride] | 63 nM | 130 nM | 5 nM | 220 nM | 40 nM
CCN(CC)c1nc2c(c(-c3ccc(F)cc3)n1)CCNC2 [Example 24, Diethyl-[4-(4-fluoro-phenyl)-5,6,7,8-tetrahydro-pyrido[3,4-d]pyrimidin-2-yl]-amine] | 50 nM | 120 nM | 7 nM | 933 nM | 3 nM
CCN(CC)c1nc2c(c(-c3ccc(C)cc3)n1)CCNC2 [Example 26, Diethyl-(4-p-tolyl-5,6,7,8-tetrahydro-pyrido[3,4-d]pyrimidin-2-yl)-amine] | 100 nM | 200 nM | 13 nM | 316 nM | 7 nM
CCN(CC)c1nc2c(c(-c3ccc(OC)cc3)n1)CCNC2 [Example 28, Diethyl-[4-(4-methoxy-phenyl)-5,6,7,8-tetrahydro-pyrido[3,4-d]pyrimidin-2-yl]-amine] | 130 nM | 280 nM | 15 nM | 1510 nM | 70 nM
CCN(CC)c1nc2c(c(-c3ccc(C#N)cc3)n1)CCNC2 [Example 30, 4-(2-Diethylamino-5,6,7,8-tetrahydro-pyrido[3,4-d]pyrimidin-4-yl)-benzonitrile] | 300 nM | 1400 nM | 60 nM | 3720 nM | 48 nM
CC1CCCN1c1nc2c(c(-c3ccc(F)cc3)n1)CNCC2 (stereo not shown) [Example 38, 4-(4-Fluoro-phenyl)-2-(2-methyl-pyrrolidin-1-yl)-5,6,7,8-tetrahydro-pyrido[4,3-d]pyrimidine hydrochloride] | > 10000 nM | 65 nM | 50 nM | 1950 nM | 1.9 nM
Fc1ccc(-c2nc(N3CCOCC3)nc3c2CNCC3)cc1 [Example 42, 4-(4-Fluoro-phenyl)-2-morpholin-4-yl-5,6,7,8-tetrahydro-pyrido[4,3-d]pyrimidine] | > 10000 nM | 500 nM | 2050 nM | 9770 nM | 20 nM
CC(C)N(c1nc2c(c(-c3ccc(F)cc3)n1)CNCC2)C(C)C [Example 43, [4-(4-Fluoro-phenyl)-5,6,7,8-tetrahydro-pyrido[4,3-d]pyrimidin-2-yl]-diisopropyl-amine hydrochloride] | 320 nM | 150 nM | 100 nM | 195 nM | 3 nM
C[C@H]1COCCN1c1nc2c(c(-c3ccc(F)cc3)n1)CNCC2 [Example 45, 4-(4-Fluoro-phenyl)-2-(3-methyl-morpholin-4-yl)-5,6,7,8-tetrahydro-pyrido[4,3-d]pyrimidine] | > 10000 nM | 2500 nM | 1200 nM | 3390 nM | 24 nM
CCNc1nc2c(c(-c3ccc(C)cc3)n1)CNCC2 [Example 48, Ethyl-(4-p-tolyl-5,6,7,8-tetrahydro-pyrido[4,3-d]pyrimidin-2-yl)-amine] | > 10000 nM | > 10000 nM | 3000 nM | > 10000 nM | 2000 nM
Cc1ccc(-c2nc(N3CCOCC3)nc3c2CNCC3)cc1 [Example 49, 2-Morpholin-4-yl-4-p-tolyl-5,6,7,8-tetrahydro-pyrido[4,3-d]pyrimidine] | 530 nM | 630 nM | 5010 nM | 2090 nM | 100 nM
Cc1ccc(-c2nc(N3CCCCC3)nc3c2CNCC3)cc1 [Example 50, 2-Piperidin-1-yl-4-p-tolyl-5,6,7,8-tetrahydro-pyrido[4,3-d]pyrimidine] | 350 nM | 130 nM | 160 nM | 776 nM | 30 nM
Cc1ccc(-c2nc(NCc3ccccc3)nc3c2CNCC3)cc1 [Example 51, Benzyl-(4-p-tolyl-5,6,7,8-tetrahydro-pyrido[4,3-d]pyrimidin-2-yl)-amine] | 320 nM | 100 nM | 700 nM | 912 nM | 75 nM
Cc1ccc(-c2nc(N3CCCC3)nc3c2CN(C)CC3)cc1 [Example 52, 6-Methyl-2-pyrrolidin-1-yl-4-p-tolyl-5,6,7,8-tetrahydro-pyrido[4,3-d]pyrimidine] | > 10000 nM | 500 nM | 500 nM | 977 nM | 120 nM
CCN(CC)c1nc2c(c(-c3ccc(Cl)cc3)n1)CCNCC2 [Example 60, [4-(4-Chloro-phenyl)-6,7,8,9-tetrahydro-5H-pyrimido[4,5-d]azepin-2-yl]-diethyl-amine] | 41 nM | 100 nM | 10 nM | > 10000 nM | 20 nM
Cc1ccc(-c2nc(N(C)C)nc3c2CNCC3)cc1 [Example 61, Dimethyl-(4-p-tolyl-5,6,7,8-tetrahydro-pyrido[4,3-d]pyrimidin-2-yl)-amine] | 9000 nM | 5000 nM | 620 nM | 2290 nM | 420 nM
